The source of these data is PubChem BioAssay AID652285 (Sanford-Burnham Center for Chemical Genomics, 2013).

SMILES strings stand for the structures. “And” between values parts separate entries of the source, which are not always exact repeats. Equal entries are not always repeated. The source made the active and inactive calls.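 Rule for the calls: active = IC50 at or below 60 µM; inactive = the rest.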 Bounds are passed on as bounds.

The target in this test is COP9 signalosome complex subunit 5 (Homo sapiens) (UniProt Q92905). As to the kind of experiment: Csn5 deneddylase inhibition by analogues, SAR follow-up, selectivity assay for RPN11 inhibitor project, biochemical, fluorescence polarization, Cul-Nedd8-OG substrate (AID 652285). Particulars: Csn5 deneddylation of SCF-Nedd8-OG.
COP9 signalosome complex subunit 5 (Homo sapiens), sequence (Q92905 whole entry, looked up, one chain of several): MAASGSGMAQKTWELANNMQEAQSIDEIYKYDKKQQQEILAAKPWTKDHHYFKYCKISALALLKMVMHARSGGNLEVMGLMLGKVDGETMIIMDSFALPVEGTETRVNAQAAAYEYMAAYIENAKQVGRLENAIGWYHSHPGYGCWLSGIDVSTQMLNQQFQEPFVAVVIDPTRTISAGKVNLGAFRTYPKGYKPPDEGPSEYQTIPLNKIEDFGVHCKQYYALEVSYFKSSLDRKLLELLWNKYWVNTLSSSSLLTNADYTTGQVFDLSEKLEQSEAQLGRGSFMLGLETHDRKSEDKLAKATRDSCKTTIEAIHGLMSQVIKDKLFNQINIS
For the compound `COC(=O)[C@H](C)N(C)C(=O)c1cnc2c(SSc3cccc4cc(C(=O)N(C)[C@@H](C)C(=O)OC)cnc34)cccc2c1`, the IC50 is 8.63 µM.

As for `O=C(Sc1cccc2cccnc12)c1cccc2ccccc12`, the IC50 was 8.9 µM.

`COC(=O)[C@H](CC(C)C)NC(=O)c1cnc2c(SSc3cccc4cc(C(=O)N[C@@H](CC(C)C)C(=O)OC)cnc34)cccc2c1`: the IC50 is 12.7 µM.

Take `CC[C@@H](C)[C@H](NC(=O)c1cnc2c(SSc3cccc4cc(C(=O)N[C@H](C(=O)O)[C@H](C)CC)cnc34)cccc2c1)C(=O)O`: the IC50 is 5.76 µM.

Turning to `N#Cc1cccc(C(=O)Sc2cccc3cccnc23)c1`, the IC50 result is “inactive”.

`O=C(Sc1cccc2cccnc12)c1ccccc1Cl`: the IC50 was 14.1 µM.

As for `Cc1ccc(C(=O)Sc2cccc3cccnc23)cc1`, the IC50 was > 95 µM (inactive).

As for `O=C(Sc1cccc2cccnc12)c1ccccc1`, the IC50 was 4.77 µM.

Take `COc1ccc(C(=O)Sc2cccc3cccnc23)cc1`: the IC50 is 9.61 µM.

As to `O=C(Sc1cccc2cccnc12)c1c(Cl)cccc1Cl`, the IC50 was 3.95 µM.

Consider `Cc1ccccc1C(=O)Sc1cccc2cccnc12`, for which the IC50 was 20.8 µM.

Regarding `O=C(Sc1cccc2cccnc12)c1cccc(C(F)(F)F)c1`, the IC50 was > 95 µM (inactive).

In the case of `COc1ccccc1C(=O)Sc1cccc2cccnc12`, the half-inhibitory concentration (IC50) was 14.2 µM and 8.37 µM.

Turning to `O=C(Sc1cccc2cccnc12)c1cccc(Cl)c1`, the half-maximal inhibitory concentration (IC50) is 1.91 µM.

Turning to `O=C(Sc1cccc2cccnc12)c1ccccc1Br`, the IC50 is 5.44 µM.

For `O=C(Sc1cccc2cccnc12)c1ccccc1[N+](=O)[O-]`, the IC50 is 8.24 µM.

Regarding `O=C(Sc1cccc2cccnc12)c1ccc(C(F)(F)F)cc1`, the IC50 is 6.26 µM.

Regarding `CC(C)(C)OC(=O)CCNC(=O)c1cnc2c(SSc3cccc4cc(C(=O)NCCC(=O)OC(C)(C)C)cnc34)cccc2c1`, the 50% inhibitory concentration (IC50) is 34.7 µM.

As for `O=C(Sc1cccc2cccnc12)c1ccccc1OC(F)(F)F`, the IC50 was 9.48 µM.

With `COC(=O)[C@@H](NC(=O)c1cnc2c(SSc3cccc4cc(C(=O)N[C@H](C(=O)OC)C(C)C)cnc34)cccc2c1)C(C)C`, the IC50 is 7.62 µM.

On to `O=C(Sc1cccc2cccnc12)c1ccc([N+](=O)[O-])cc1`, for which the IC50 was 20.2 µM.

In the case of `C[C@@H](C(=O)O)N(C)C(=O)c1cnc2c(SSc3cccc4cc(C(=O)N(C)[C@@H](C)C(=O)O)cnc34)cccc2c1`, the 50% inhibitory concentration (IC50) was 16.6 µM.

With `O=C(Sc1cccc2cccnc12)c1ccc(F)cc1`, the IC50 is 4.3 µM.

For `COc1ccc(C(=O)Sc2cccc3cccnc23)cc1F`, the IC50 is 6.5 µM.

Take `CCOc1ccccc1C(=O)Sc1cccc2cccnc12`: the IC50 is 9.27 µM and 34.4 µM.

On to `O=C(O)[C@@H]1CCCN1C(=O)c1cnc2c(SSc3cccc4cc(C(=O)N5CCC[C@H]5C(=O)O)cnc34)cccc2c1`, for which the IC50 is 5.4 µM.

Turning to `COC(=O)[C@H](C)NC(=O)c1ccnc2c(SSc3cccc4c(C(=O)N[C@@H](C)C(=O)OC)ccnc34)cccc12`, the half-inhibitory concentration (IC50) was 16.8 µM.

For `O=C(Sc1cccc2cccnc12)c1ccccc1I`, the concentration for half-maximal inhibition (IC50) is 11.2 µM.

Consider `COC(=O)[C@H](CO)NC(=O)c1cnc2c(SSc3cccc4cc(C(=O)N[C@@H](CO)C(=O)OC)cnc34)cccc2c1`, for which the IC50 was 42.7 µM.

As to `COc1ccc(C(=O)Sc2cccc3cccnc23)cc1OC`, the IC50 is 8.81 µM.

With `COC(=O)[C@H](C)NC(=O)c1cnc2c(SSc3cccc4cc(C(=O)N[C@@H](C)C(=O)OC)cnc34)cccc2c1`, the IC50 was 15.4 µM.

`O=C(Sc1cccc2cccnc12)c1ccc(F)cc1F`: the IC50 entry is “inactive”.

Take `N#Cc1ccc(C(=O)Sc2cccc3cccnc23)cc1`: the IC50 was > 95 µM (inactive).

In the case of `CCCc1ccc(C(=O)Sc2cccc3cccnc23)cc1`, the IC50 is 10.7 µM.

On to `O=C(Sc1cccc2cccnc12)c1ccc(F)c(F)c1`, for which the IC50 is 5.36 µM.

Regarding `CC(C)C[C@H](NC(=O)c1cnc2c(SSc3cccc4cc(C(=O)N[C@@H](CC(C)C)C(=O)O)cnc34)cccc2c1)C(=O)O`, the IC50 is 9.33 µM.

In the case of `O=C(Sc1cccc2cccnc12)c1ccc2c(c1)OCO2`, the IC50 was 18.3 µM.

For `O=C(Sc1cccc2cccnc12)c1ccccc1F`, the IC50 was > 95 µM (inactive).

As usually defined, the IC50 is the concentration needed to halve the response being measured.
